{
  "source": "patent US9403866B2",
  "about": "“Compositions and methods for increasing telomerase activity” (Telomerase Activation Sciences, Inc., priority 2009, dated 2016)",
  "key": {"[1]": {"assay": "Plasma levels and bioavailability in rats", "conditions": "male, Sprague Dawley, rat, in vivo, po, 10 mg/kg", "experimental": "(§1) The plasma levels of a compound following a single intravenous and oral administration in carotid artery-cannulated male Sprague Dawley rats was determined. Plasma samples were collected and used to determine the plasma concentration of the compound and metabolites. In addition tissue samples, including whisker samples and PBMC cells were collected for telomerase activity analysis.\n(§2) Carotid artery-cannulated male Sprague Dawley rats were divided into treatment groups according to Table 6. The rats were provided ad libitum SLAC-MO1 # YY080208 (Shanghai Laboratories Animal Center, Shanghai, China) throughout the in-life portion of the study with the exception of the overnight fasting period prior to oral dosing. Water was available ad libitum.\nThe compounds were dissolved in 2% EtOH/98% water to yield a final concentration of 2.5 mg/ml and 1 mg/ml for both intravenous and oral administration, respectively. The concentration of each compound was confirmed by HPLC analysis.\nBody weights were taken on the day of dose administration. Dose volume was determined based on individual body weight taken on day of dosing.\n(§3) Blood samples (approximately 250 μL) were collected via cannulae into tubes containing K2-EDTA anticoagulant and 1 mg/ml NaF at the various time points. Blood was stored on ice and then plasma separated via centrifugation (8000 rpm×6 minutes). The plasma was stored at […] until LC-MS/MS analysis.\nPercentage of bioavailability was calculated."}, "[2]": {"set-up": "species or system male Beagle dogs", "conditions": "male, Beagle, dog, in vivo, po, 10 mg/kg", "experimental": "as §1, with “level” for “levels”, “in” for “in carotid artery-cannulated”, “Beagle dogs” for “Sprague Dawley rats”\nas §2, with “Male Beagle dogs” for “Carotid artery-cannulated male Sprague Dawley rats”, “5.” for “6.”, “dogs” for “rats”, “#W080701” for “# YY080208”\nThe compounds were dissolved in 2% EtOH/98% water […] to yield a final concentration of 2.5 mg/ml and 1 mg/ml for both intravenous and oral administration, respectively. The concentration of each compound was confirmed by HPLC analysis.\nDoses were administered intravenously via the left femoral vein and then by oral dosing one week later. Body weights were taken on the day of dose administration. Dose volume was determined based on individual body weight taken on day of dosing.\nas §3, with “right femoral vein” for “cannulae”, “appropriate” for “the various”"}, "telomerase [3]": {"target": "T1, telomerase (Homo sapiens, UniProt O14746)", "T1 sequence (O14746 whole entry)": "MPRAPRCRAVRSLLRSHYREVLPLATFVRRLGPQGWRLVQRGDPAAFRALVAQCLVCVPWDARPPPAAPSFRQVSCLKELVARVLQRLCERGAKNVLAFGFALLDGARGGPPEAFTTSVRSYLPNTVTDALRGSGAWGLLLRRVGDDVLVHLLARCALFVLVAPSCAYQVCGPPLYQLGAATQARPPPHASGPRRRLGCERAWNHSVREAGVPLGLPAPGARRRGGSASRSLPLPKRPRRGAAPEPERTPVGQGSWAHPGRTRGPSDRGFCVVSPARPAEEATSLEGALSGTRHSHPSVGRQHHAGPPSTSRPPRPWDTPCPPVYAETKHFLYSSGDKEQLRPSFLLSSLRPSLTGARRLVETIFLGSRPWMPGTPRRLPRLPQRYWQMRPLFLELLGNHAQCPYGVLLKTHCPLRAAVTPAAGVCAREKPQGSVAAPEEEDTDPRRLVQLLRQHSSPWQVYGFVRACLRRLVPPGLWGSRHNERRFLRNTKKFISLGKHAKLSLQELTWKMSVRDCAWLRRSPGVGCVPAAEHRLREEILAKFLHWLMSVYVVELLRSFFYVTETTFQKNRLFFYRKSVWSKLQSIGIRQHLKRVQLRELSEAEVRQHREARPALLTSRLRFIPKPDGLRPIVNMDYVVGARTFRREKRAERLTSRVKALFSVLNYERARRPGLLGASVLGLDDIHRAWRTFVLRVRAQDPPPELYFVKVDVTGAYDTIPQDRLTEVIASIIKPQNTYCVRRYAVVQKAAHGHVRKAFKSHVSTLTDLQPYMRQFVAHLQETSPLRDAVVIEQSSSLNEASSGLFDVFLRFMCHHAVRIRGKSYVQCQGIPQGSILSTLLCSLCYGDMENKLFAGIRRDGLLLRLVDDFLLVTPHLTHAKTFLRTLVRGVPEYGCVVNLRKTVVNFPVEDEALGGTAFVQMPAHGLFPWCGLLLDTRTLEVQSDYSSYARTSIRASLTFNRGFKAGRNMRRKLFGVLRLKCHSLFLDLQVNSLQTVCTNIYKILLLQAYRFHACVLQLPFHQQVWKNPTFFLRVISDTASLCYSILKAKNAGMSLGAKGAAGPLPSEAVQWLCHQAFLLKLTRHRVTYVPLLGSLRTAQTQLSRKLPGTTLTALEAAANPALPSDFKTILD", "assay": "Keratinocyte cell/TRAP assay (HEKneo-P cells)", "type": "cell-based", "set-up": "host or cells: HEKneo-P (pooled neonatal human epidermal keratinocytes)", "excerpt": "Harley et al., U.S. Pat. […] Harley et al., U.S. Pat. […] Non-treatment control (NT) was also included. […]"}, "telomerase [4]": {"target": "T1, telomerase", "assay": "Peripheral blood monocyte cell (PBMC)/TRAP assay", "type": "cell-based", "set-up": "host or cells: HEKneo-P (pooled neonatal human epidermal keratinocytes)", "conditions": "24 hours", "excerpt": "Cell lines suitable for use in the assay, normal human peripheral blood mononuclear cells (PBMCs) or Human Epidermal Keratinocytes (neonatal) (HEKs), can be obtained from commercial sources, such as Cascade Biologics, Portland, Oreg. or 4C Biotech, Seneffe, Belgium, or from the ATCC (American Type Culture Collection). ATCC normal human fibroblast cell lines, which can be located on the ATCC web site, include for example, CCL135, CCL137, and CCL151.\nPBMC Isolation. Blood was collected in sodium heparin vacutainers and pooled into a single 50 mL polypropylene tube. Blood was diluted 1:1 with 1×PBS and mixed thoroughly by inversion. 25 mL of diluted blood was layered over 12 mL of Lympholyte-H (Cedarlane Laboratories) and centrifuged at room temperature for 20 min at 800 g. […]\nCulture Conditions. The cells were counted using Trypan Blue exclusion and resuspended in complete media that is supplemented with 50 Units of hIL-2/mL so that final concentration of cells is 1×10^6/mL. […] At least once a week, cells are counted and media level is adjusted to keep cells around 5—10^5/mL. […]\nTreatment with Analogs. After 10-14 days in culture, cells were counted and resuspended in conditioned media at a concentration of 1×10^6/mL. […]\nTRAP Reaction and Gel. Samples were analyzed using a 1-step TRAP PCR reaction. […]"}},
  "note": "Like-named read-outs stand apart in the source and are kept apart here.",
  "data": [
    {"smiles": "CC(C)(O)[C@@H]1CC[C@](C)([C@H]2[C@@H](O)C[C@@]3(C)[C@@H]4C[C@H](O)[C@H]5C(C)(C)[C@@H](O)CC[C@@]56C[C@@]46CC[C@]23C)O1", "note": "[Compound 2, 17-[5-(1-Hydroxy-1-methyl-ethyl)-2-methyl-tetrahydro-furan-2-yl]-4,4,13,14-tetramethyl-tetradecahydro-cyclopropa[9,10]cyclopenta[a]phenanthrene-3β,6α,16β-triol, reference compound]", "values": [
      {"measurement": "Bioavailability % F", "setting": "[1]", "value": 22.6, "unit": "%"},
      {"measurement": "Bioavailability % F", "setting": "[2]", "value": 3, "unit": "%"},
      {"measurement": "Max fold increase of activity", "setting": "telomerase [3]", "value": 3.3, "unit": "fold"},
      {"measurement": "Activity in in vitro HEK assay", "setting": "telomerase [3]; 24 hr, 0.01 to 10 μM, vs vehicle control at peak of full dose curve", "value": "+ (telomerase activation is 2 fold or more in comparison with vehicle control at the peak of the full dose curve.)"},
      {"measurement": "EC50", "setting": "telomerase [3]; telomerase activation", "value": 30, "unit": "nM"},
      {"measurement": "Fold increase at 1 μM", "setting": "telomerase [4]", "value": "1.6-20.7 fold"}
    ]}
  ]
}
